Experimental data: article PMC4213485, “Relevant and selective activity of Pancratium illyricum L. against Candida albicans clinical isolates: a combined effect on yeast growth and virulence” (BMC Complementary and Alternative Medicine, 2014)

Molecular target: T1, Clostridium hystolyticum collagenase (EC.3.4.23.3)
T1 construct: gene colH
Assay: FALGPA hydrolysis, absorbance at […] nm
Assay type: biochemical, Hathewaya histolytica
Details: FALGPA substrate (2 mM stock), 50 mM Tricine, 10 mM CaCl2, 400 mM NaCl, pH 7.5, 15 min preincubation

Q: With `O=C(O[C@@H]1Cc2c(O)cc(O)cc2O[C@@H]1c1cc(O)c(O)c(O)c1)c1cc(O)c(O)c(O)c1` [EGCG] as the compound, how does the IC50 read?
A: Its IC50 is 9.45 ± 0.5 µM.
